These results are taken from patent US7166597B2, “Fused pyrazole derivatives being protein kinase inhibitors” (Glaxo Group Limited, priority 2000, dated 2007).

The term IC50 denotes the midpoint of a concentration-inhibition curve.

SMILES strings stand for the structures. Read-outs that look alike come from different tables or passages of the source. Some results are limits rather than exact numbers.

In one test the target is T1, p38 kinase (Homo sapiens, UniProt Q16539).
T1 construct: GST (N); made in house; host or cells: E. coli
As to the kind of experiment: p38 Kinase Assay. Format: biochemical. As for the experimental part: The peptide substrate used in the p38 assay was biotin-IPTSPITTTYFFFRRR-amide. The p38 and MEK6 proteins were purified to homogeneity from E. coli expression systems. The fusion proteins were tagged at the N-terminus with Glutathione-S-Transferase (GST). The maximum activation was achieved by incubating 20 uL of a reaction mixture of 30 nM MEK6 protein and 120 nM p38 protein in the presence of 1.5 uM peptide and 10 mM Mg (CH3CO2)2 in 100 mM HEPES7 pH 7.5, added to 15 uL of a mixture of 1.5 uM ATP with 0.08 uCi [g-^33P]ATP, with or without 15 uL of inhibitor in 6% DMSO. The controls were reactions in the presence (negative controls) or absence (positive controls) of 50 mM EDTA. Reactions were allowed to proceed for 60 min at room temperature and quenched with addition of 50 uL of 250 mM EDTA and mixed with 150 uL of Streptavidin SPA beads (Amersham) to 0.5 mg/reaction. The Dynatech Microfluor white U-bottom plates were sealed and the beads were allowed to settle overnight. The plates were counted in a Packard TopCount for 60 seconds. IC50 values were obtained by fitting raw data to % I=100*(1−(I−C2)/(C1−C2)), where I was […], C1 was positive control, and C2 was negative control.

Test [1] addresses T2, JNK3 kinase (Jnk-3alpha-2) (Homo sapiens, UniProt P53779).
T2 construct: Jnk-3alpha-2 (as a truncated construct, residues 39 to 224) was expressed in E. coli as a GST fusion protein; Following purification the GST portion was removed by thrombin cleavage; fused on or other part: An N-terminal GST tag was used for expression and removed by thrombin cleavage before the assay
Put plainly: JNK3 Kinase Assay. Format: biochemical. The protocol: JNK3 Kinase Assay Jnk-3alpha-2 (as a truncated construct, residues 39 to 224) was expressed in E. coli as a GST fusion protein. Following purification the GST portion was removed by thrombin cleavage. The enzyme was stored at −80° C. Substrate c-Jun was expressed as a GST fusion protein including a signal peptide (biotinylation site) in E. coli. Following purification the substrate was biotinylated on a specific lysine in the signal peptide using biotin ligase. Prior to assay Jnk-3 was pre-activated by incubation with MgATP. The enzyme (10 nM) was screened in 40 mM HEPES (pH 7.4), 150 mM NaCl, 20 mM glycerophosphate, 1 mM DTT, 0.2 mM vanadate, 200 nM biotin-c-Jun, 5 mM MgCl2 and 10 uM ATP. Inhibitors were added over a conc range of from 0 to 10 uM in DMSO (fc 3%). The reaction was stopped by the addition of 25 mM EDTA. Phospho-c-Jun was detected using homogeneous time resolved fluorescence (HTRF) with a Eu-labelled antiphosphoserine (Serine 73) and streptavidin APC.

[2] abbreviates: Table 9, p38 assays using Assay II, read-out: p38 IC50.
[3] abbreviates: Table 8, compounds wherein Z is N, read-out: p38 kinase (inhibition of p38 kinase, IC50).

T1 sequence (Q16539 whole entry): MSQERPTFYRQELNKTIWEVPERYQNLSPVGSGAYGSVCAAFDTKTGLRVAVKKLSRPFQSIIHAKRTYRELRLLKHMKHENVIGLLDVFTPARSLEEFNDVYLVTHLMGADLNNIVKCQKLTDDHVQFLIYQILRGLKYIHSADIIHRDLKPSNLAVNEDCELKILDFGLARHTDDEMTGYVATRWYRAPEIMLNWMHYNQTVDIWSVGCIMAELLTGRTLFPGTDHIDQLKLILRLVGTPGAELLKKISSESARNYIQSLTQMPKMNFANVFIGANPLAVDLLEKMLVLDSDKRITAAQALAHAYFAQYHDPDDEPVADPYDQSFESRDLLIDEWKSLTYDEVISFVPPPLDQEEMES
T2 sequence (P53779 39-402 limits assumed): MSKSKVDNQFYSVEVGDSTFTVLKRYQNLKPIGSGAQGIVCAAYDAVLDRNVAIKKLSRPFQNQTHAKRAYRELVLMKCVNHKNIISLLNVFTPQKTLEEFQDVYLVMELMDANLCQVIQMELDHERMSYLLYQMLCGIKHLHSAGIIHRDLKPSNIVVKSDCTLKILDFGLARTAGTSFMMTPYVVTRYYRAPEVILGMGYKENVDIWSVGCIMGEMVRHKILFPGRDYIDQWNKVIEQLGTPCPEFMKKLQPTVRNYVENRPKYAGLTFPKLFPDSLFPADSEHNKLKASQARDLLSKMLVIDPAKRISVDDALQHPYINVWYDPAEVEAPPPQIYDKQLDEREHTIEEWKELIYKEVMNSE

In the case of `CCCN1CCN(CCNc2nccc(-c3c(-c4cccc(Cl)c4)nn4cc(C(F)(F)F)ccc34)n2)CC1` [Example 129, N-{4-[2-(3-chlorophenyl)-6-(trifluoromethyl)pyrazolo[1,5-a]pyridin-3-yl]pyrimidin-2-yl}-N-[2-(4-propylpiperazin-1-yl)ethyl]amine], the IC50 at p38 kinase (setting [2]) was in the range of 10 to 100 nM; in test [1] (Table 9, read-out: JNK3 IC50) it was 100 to 1000 nM.

As to `CN(C)CCCNc1nccc(-c2c(-c3ccc(C(F)(F)F)cc3)nn3cc(C(F)(F)F)ccc23)n1` [Example 88, N-[3-(dimethylamino)propyl]-N-[4-{6-(trifluoromethyl)-2-[4-(trifluoromethyl)phenyl]pyrazolo[1,5-a]pyridin-3-yl}pyrimidin-2-yl]amine], the IC50 on p38 kinase (setting [2]) is 1000 to 10000 nM; in test [1] (Table 9, read-out: JNK3 IC50) it was 1000 to 10000 nM. As to `Fc1ccc(-c2nn3cc(C(F)(F)F)ccc3c2-c2ccnc(NCCCN3CCCCC3)n2)cc1Cl` [Example 113, N-{4-[2-(3-chloro-4-fluorophenyl)-6-(trifluoromethyl)pyrazolo[1,5-a]pyridin-3-yl]pyrimidin-2-yl}-N-(3-piperidin-1-ylpropyl)amine], the IC50 was in the range of 100 to 1000 nM at p38 kinase (setting [2]) and 100 to 1000 nM in test [1] (Table 9, read-out: JNK3 IC50). Take `Fc1ccc(-c2nn3cc(C(F)(F)F)ccc3c2-c2ccnc(Oc3ccccc3)n2)cc1` [Example 84, 2-(4-Fluorophenyl)-3-(2-phenoxypyrimidin-4-yl)-6-(trifluoromethyl)pyrazolo[1,5-a]pyridine]: the IC50 on p38 kinase (setting [3]) is less than 500 nM; in test [1] (Table 8, read-out: JNK3 kinase (inhibition of JNK3 kinase, IC50)) it was less than 500 nM. For `Fc1ccc(-c2nn3cc(C(F)(F)F)ccc3c2-c2ccnc(NCCN3CCCC3)n2)cc1Cl` [Example 104, N-{4-[2-(3-chloro-4-fluorophenyl)-6-(trifluoromethyl)pyrazolo-[1,5-a]pyridin-3-yl]pyrimidin-2-yl}-N-(2-pyrrolidin-1-ylethyl)amine], the IC50 on p38 kinase (setting [2]) fell in the range of 100 to 1000 nM; in test [1] (Table 9, read-out: JNK3 IC50), 1000 to 10000 nM. As to `CN(C)CCCNc1nccc(-c2c(-c3ccc(F)c(Cl)c3)nn3cc(C(F)(F)F)ccc23)n1` [Example 89, N-[4-{2-[3-chloro-4-fluorophenyl]-6-(trifluoromethyl)pyrazolo-[1,5-a]pyridin-3-yl}pyrimidin-2-yl]-N-[3-(dimethylamino)propyl]amine], the half-maximal inhibitory concentration (IC50) on p38 kinase (setting [2]) fell in the range of 10 to 100 nM; in test [1] (Table 9, read-out: JNK3 IC50), 1000 to 10000 nM. Consider `NC(=O)c1ccc2c(-c3ccnc(NCCCO)n3)c(-c3ccc(F)cc3)nn2c1` [Example 76, 2-(4-Fluorophenyl)-3-(4-(2-(3-hydroxypropyl)amino)pyrimidinyl)-6-pyrazolo-[1,5-a]pyridinylcarboxamide], for which, on p38 kinase (setting [3]), the IC50 is less than 500 nM.

Regarding `OCCCNc1nccc(-c2c(-c3ccc(F)cc3)nn3cc(C(F)(F)F)ccc23)n1` [Example 72, 3-(4-[2-(4-Fluorophenyl)-6-trifluoromethylpyrazolo[1,5-a]pyridin-3-yl]-2-pyrimidinylamino)-1-propanol], the 50% inhibitory concentration (IC50) on p38 kinase (setting [3]) is less than 500 nM. As for `CCN(CC)CCCCNc1nccc(-c2c(-c3ccc(F)c(Cl)c3)nn3cc(C(F)(F)F)ccc23)n1` [Example 93, N-{4-[2-(3-chloro-4-fluorophenyl)-6-(trifluoromethyl)pyrazolo-[1,5-a]pyridin-3-yl]pyrimidin-2-yl}-N-[4-(diethylamino)butyl]amine], the 50% inhibitory concentration (IC50) on p38 kinase (setting [2]) is 10 to 100 nM; in test [1] (Table 9, read-out: JNK3 IC50), 100 to 1000 nM. Taken in the same sequence, the figures for `Fc1ccc(-c2nn3cc(C(F)(F)F)ccc3c2-c2ccnc(NCCN3CCCCC3)n2)cc1Cl` [Example 109, N-{4-[2-(3-chloro-4-fluorophenyl)-6-(trifluoromethyl)pyrazolo[1,5-a]pyridin-3-yl]pyrimidin-2-yl}-N-(2-piperidin-1-ylethyl)amine] were 100 to 1000 nM and 1000 to 10000 nM. Taken in the same sequence, the figures for `CCCN(CCC)CCNc1nccc(-c2c(-c3cccc(Cl)c3)nn3cc(C(F)(F)F)ccc23)n1` [Example 99, N-{4-[2-(3-chlorophenyl)-6-(trifluoromethyl)pyrazolo[1,5-a]pyridin-3-yl]pyrimidin-2-yl}-N-[2-(dipropylamino)ethyl]amine] were 100 to 1000 nM and 1000 to 10000 nM. For `FC(F)(F)c1ccc(-c2nn3cc(C(F)(F)F)ccc3c2-c2ccnc(NCCN3CCCCC3)n2)cc1` [Example 108, N-(2-piperidin-1-ylethyl)-N-(4-{6-(trifluoromethyl)-2-[4-(trifluoromethyl)phenyl]pyrazolo[1,5-a]pyridin-3-yl}pyrimidin-2-yl)amine], at p38 kinase (setting [2]), the concentration for half-maximal inhibition (IC50) lay within 1000 to 10000 nM.

On to `CCCN(CCC)CCNc1nccc(-c2c(-c3ccc(C(F)(F)F)cc3)nn3cc(C(F)(F)F)ccc23)n1` [Example 97, N-[2-(dipropylamino)ethyl]-N-(4-{6-(trifluoromethyl)-2-[4-(trifluoromethyl)phenyl]pyrazolo[1,5-a]pyridin-3-yl}pyrimidin-2-yl)amine], for which the half-inhibitory concentration (IC50) at p38 kinase (setting [2]) is 1000 to 10000 nM. Still for that read-out and setting: to `FC(F)(F)c1ccc(-c2nn3cc(C(F)(F)F)ccc3c2-c2ccnc(NCCCN3CCOCC3)n2)cc1` [Example 121, N-(3-morpholin-4-ylpropyl)-N-(4-{6-(trifluoromethyl)-2-[4-(trifluoromethyl)phenyl]pyrazolo[1,5-a]pyridin-3-yl}pyrimidin-2-yl)amine] belongs 1000 to 10000 nM. As to `Nc1nccc(-c2c(-c3ccc(F)cc3)nn3cc(C(F)(F)F)ccc23)n1` [Example 65, 4-[2-(4-Fluorophenyl)-6-trifluoromethylpyrazolo[1,5-a]pyridin-3-yl]-2-pyrimidinamine], the half-maximal inhibitory concentration (IC50) at p38 kinase (setting [3]) was less than 500 nM. Turning to `FC(F)(F)c1ccc(-c2nn3cc(C(F)(F)F)ccc3c2-c2ccnc(NCCN3CCCC3)n2)cc1` [Example 103, N-(2-pyrrolidin-1-ylethyl)-N-(4-{6-(trifluoromethyl)-2-[4-(trifluoromethyl)phenyl]pyrazolo[1,5-a]pyridin-3-yl}pyrimidin-2-yl)amine], the concentration for half-maximal inhibition (IC50) at p38 kinase (setting [2]) is 1000 to 10000 nM. The same measure, in the same setting: with `CCN(CC)CCNc1nccc(-c2c(-c3ccc(C(F)(F)F)cc3)nn3cc(C(F)(F)F)ccc23)n1` [Example 95, N-[2-(diethylamino)ethyl]-N-(4-{6-(trifluoromethyl)-2-[4-(trifluoromethyl)phenyl]pyrazolo[1,5-a]pyridin-3-yl}pyrimidin-2-yl)amine] the figure was 1000 to 10000 nM.

On to `CN1CCN(CCCNc2nccc(-c3c(-c4ccc(F)cc4)nn4cc(C(N)=O)ccc34)n2)CC1` [Example 79, 2-(4-Fluorophenyl)-3-(4-(2-(3-(4-methylpiperazino)propyl)amino)pyrimidinyl)-6-pyrazolo-[1,5-a]pyridinylcarboxamide], for which the 50% inhibitory concentration (IC50) at p38 kinase (setting [3]) is less than 500 nM. Regarding `OCc1ccn2nc(-c3ccc(F)cc3)c(-c3ccncc3)c2c1` [Example 6, 2-(4-Fluorophenyl)-5-hydroxymethyl-3-(4-pyridinyl)pyrazolo[1,5-a]pyridine], the half-maximal inhibitory concentration (IC50) on p38 kinase (Table 7, compounds wherein Z is CH, read-out: P38 kinase (inhibition of p38 kinase, IC50)) is less than 500 nM. Consider `CCN(CC)CCNc1nccc(-c2c(-c3cccc(Cl)c3)nn3cc(C(F)(F)F)ccc23)n1` [Example 96, N-{4-[2-(3-chlorophenyl)-6-(trifluoromethyl)pyrazolo[1,5-a]pyridin-3-yl]pyrimidin-2-yl}-N-[2-(diethylamino)ethyl]amine], for which, on p38 kinase (setting [2]), the concentration for half-maximal inhibition (IC50) lay in the range of 100 to 1000 nM.

`FC(F)(F)c1ccc(-c2nn3cc(C(F)(F)F)ccc3c2-c2ccnc(NCCN3CCOCC3)n2)cc1` [Example 119, N-(2-morpholin-4-ylethyl)-N-(4-{6-(trifluoromethyl)-2-[4-(trifluoromethyl)phenyl]pyrazolo[1,5-a]pyridin-3-yl}pyrimidin-2-yl)amine]: the concentration for half-maximal inhibition (IC50) at p38 kinase (setting [2]) fell in the range of 1000 to 10000 nM.
